Source: US3981999A, “Fish disease treatment” (Dainippon Pharmaceutical Co., Ltd., priority 1973, dated 1976)
≈ marks a conversion by molar mass, not a printed value.

Tests used:
Assay in all cases: MIC by broth serial dilution
Format in all cases: cell-based
[1] = tested on: Aeromonas liquefaciens Y-62; details: Aeromonas hydrophila, Y62; bouillon pH 7.2, 25°C, 48 hours; read-out: MIC
Protocol: (§1) The MIC (minimum inhibitory concentration) of a test compound was determined by the serial dilution method on various pathogenic microorganisms incubated under the following experimental conditions. The lowest concentration at which the visible growth of the organism was inhibited was considered as MIC. […]
(§2) the broth-dilution method bouillon, pH 7.2, except for Vibrio (3% NaCl-bouillon, pH 7.2), Pasteurella (2% NaCl-Brain Heart Infusion, pH 7.3 and Chondrococcus (TY medium, pH 7.3) 1 drop of a bacterial suspension per test tube (100 - 1000 minimal growing units in the medium) 25°C, except for Pseud. anguilliseptica (20°C)
(§3) 48 hours, except for Pseudo. anguilliseptica ([…])

[2] = tested on: Aeromonas salmonicida Hara-1; details: HARA1, bouillon pH 7.2, 25°C, 48 hours, read-out: MIC
Protocol: as §1, §2, §3

[3] = tested on: Aeromonas salmonicida Kawazu; details: bouillon pH 7.2, 25°C, 48 hours, read-out: MIC
Protocol: as §1, §2, §3

[4] = tested on: Aeromonas salmonicida Kusuda; details: bouillon pH 7.2, 25°C, 48 hours, read-out: MIC
Protocol: as §1, §2, §3

Chondrococcus sp K-1 = details: TY medium pH 7.3, 25°C, 48 hours; read-out: MIC
Protocol: as §1, §2, §3

Chondrococcus sp K-2 = details: TY medium pH 7.3, 25°C, 48 hours; read-out: MIC
Protocol: as §1, §2, §3

[5] = tested on: Pasteurella piscicida K-1; details: Photobacterium damselae, K1; 2% NaCl-Brain Heart Infusion pH 7.3, 25°C, 48 hours; read-out: MIC
Protocol: as §1, §2, §3

[6] = tested on: Pseudomonas anguilliseptica S-1; details: S1, bouillon pH 7.2, 20°C, 7 hours, read-out: MIC
Protocol: as §1, §2, §3

Vibrio anguillarum A-8 = details: A8, 3% NaCl-bouillon pH 7.2, 25°C, 48 hours, read-out: MIC
Protocol: as §1, §2, §3

Vibrio anguillarum Km-30 = details: KM30, 3% NaCl-bouillon pH 7.2, 25°C, 48 hours, read-out: MIC
Protocol: as §1, §2, §3

Which results are given for CCn1cc(C(=O)O)c(=O)c2cnc(N3CCCC3)nc21 [PA, 5,8-dihydro-2-pyrrolidino-8-ethyl-5-oxopyrido[2,3-d]pyrimidine-6-carboxylic acid]?
MIC [1]: 1 µg/mL (≈ 3.47 µM); MIC [2]: 0.1 µg/mL (≈ 0.347 µM); MIC [3]: 0.1 µg/mL (≈ 0.347 µM); MIC [4]: 0.1 µg/mL (≈ 0.347 µM); MIC (Chondrococcus sp K-1): 0.3 µg/mL (≈ 1.04 µM); MIC (Chondrococcus sp K-2): 0.3 µg/mL (≈ 1.04 µM); MIC [5]: 1 µg/mL (≈ 3.47 µM); MIC [6]: 0.1 µg/mL (≈ 0.347 µM); MIC (Vibrio anguillarum A-8): 3 µg/mL (≈ 10.4 µM); MIC (Vibrio anguillarum Km-30): 3 µg/mL (≈ 10.4 µM)
